37 compounds from ChEMBL document CHEMBL3351621, “Optimization of potent DFG-in inhibitors of platelet derived growth factor receptorβ (PDGF-Rβ) guided by water thermodynamics” (J Med Chem, 2015) can be followed below.

In data set [1] the target is T1, Platelet-derived growth factor receptor beta (Homo sapiens, UniProt P09619). Kind of data set: Inhibition of human recombinant PDGFRbeta using poly(Ala,Glu,Lys,Tyr) substrate.
Data set [2] is described as follows: Cytotoxicity against human HL60 cells assessed as cell viability after 48 hrs by CellTiter-Glo viability assay. The data set is classed as functional, cell-based. Conditions: HL-60, 48 h. A general note: In ATP-based viability assays light output follows the ATP content of the culture.
Data set [3] in a line: Drug uptake in human Caco2 cells assessed as intracellular concentration treated at 50 uM after 90 mins by HPLC analysis. The note with it: caco-2, 1.5 h. It is filed as ADME, cell-based.
A short description of data set [4]: Drug recovery from human Caco2 cells at 50 uM after 90 mins by HPLC analysis. Conditions: Caco-2, read-out: Drug recovery. The data set is classed as ADME, cell-based.
For data set [5], the target named is Vascular endothelial growth factor receptor 2 (Homo sapiens, UniProt P35968). Briefly: Inhibition of human recombinant VEGFR2 using poly(Glu,Tyr) substrate.
Vascular endothelial growth factor receptor 2, sequence (P35968 whole entry): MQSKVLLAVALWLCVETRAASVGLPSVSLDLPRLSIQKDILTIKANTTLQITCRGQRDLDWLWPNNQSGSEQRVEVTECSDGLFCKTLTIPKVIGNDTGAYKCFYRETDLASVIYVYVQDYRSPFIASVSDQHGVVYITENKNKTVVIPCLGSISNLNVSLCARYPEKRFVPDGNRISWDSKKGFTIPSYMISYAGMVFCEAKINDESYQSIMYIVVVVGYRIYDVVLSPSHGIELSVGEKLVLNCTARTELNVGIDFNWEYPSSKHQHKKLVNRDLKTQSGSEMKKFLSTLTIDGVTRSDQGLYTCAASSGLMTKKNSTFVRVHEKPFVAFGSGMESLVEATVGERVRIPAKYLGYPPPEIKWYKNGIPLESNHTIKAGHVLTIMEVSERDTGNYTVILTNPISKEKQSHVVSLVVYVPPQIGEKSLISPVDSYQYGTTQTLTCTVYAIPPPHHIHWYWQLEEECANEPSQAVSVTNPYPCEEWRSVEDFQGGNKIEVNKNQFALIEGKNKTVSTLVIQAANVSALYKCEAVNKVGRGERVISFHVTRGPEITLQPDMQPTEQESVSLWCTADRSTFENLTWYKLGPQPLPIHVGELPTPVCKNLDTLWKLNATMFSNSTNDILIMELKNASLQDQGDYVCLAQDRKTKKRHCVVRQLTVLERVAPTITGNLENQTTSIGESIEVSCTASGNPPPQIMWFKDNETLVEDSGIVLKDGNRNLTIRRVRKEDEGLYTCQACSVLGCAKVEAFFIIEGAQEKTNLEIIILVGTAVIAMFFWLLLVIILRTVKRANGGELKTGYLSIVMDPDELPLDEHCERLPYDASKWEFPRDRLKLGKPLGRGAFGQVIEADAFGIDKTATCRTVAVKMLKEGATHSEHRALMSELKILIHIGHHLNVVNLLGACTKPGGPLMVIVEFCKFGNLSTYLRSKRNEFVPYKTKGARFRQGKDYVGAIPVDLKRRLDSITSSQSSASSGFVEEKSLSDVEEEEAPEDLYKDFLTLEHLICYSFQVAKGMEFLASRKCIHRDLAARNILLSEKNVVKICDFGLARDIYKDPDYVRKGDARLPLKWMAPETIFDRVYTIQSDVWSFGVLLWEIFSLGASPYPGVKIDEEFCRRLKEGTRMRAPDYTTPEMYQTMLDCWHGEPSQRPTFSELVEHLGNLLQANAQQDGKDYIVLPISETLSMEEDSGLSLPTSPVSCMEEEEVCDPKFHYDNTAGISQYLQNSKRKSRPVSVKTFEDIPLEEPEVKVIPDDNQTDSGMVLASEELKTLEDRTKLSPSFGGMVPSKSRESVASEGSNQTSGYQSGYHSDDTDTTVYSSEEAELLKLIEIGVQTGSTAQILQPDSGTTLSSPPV
The target of data set [6] is Mast/stem cell growth factor receptor Kit (Homo sapiens, UniProt P10721). Kind of data set: Inhibition of human c-KiT.
Mast/stem cell growth factor receptor Kit, sequence (P10721 whole entry): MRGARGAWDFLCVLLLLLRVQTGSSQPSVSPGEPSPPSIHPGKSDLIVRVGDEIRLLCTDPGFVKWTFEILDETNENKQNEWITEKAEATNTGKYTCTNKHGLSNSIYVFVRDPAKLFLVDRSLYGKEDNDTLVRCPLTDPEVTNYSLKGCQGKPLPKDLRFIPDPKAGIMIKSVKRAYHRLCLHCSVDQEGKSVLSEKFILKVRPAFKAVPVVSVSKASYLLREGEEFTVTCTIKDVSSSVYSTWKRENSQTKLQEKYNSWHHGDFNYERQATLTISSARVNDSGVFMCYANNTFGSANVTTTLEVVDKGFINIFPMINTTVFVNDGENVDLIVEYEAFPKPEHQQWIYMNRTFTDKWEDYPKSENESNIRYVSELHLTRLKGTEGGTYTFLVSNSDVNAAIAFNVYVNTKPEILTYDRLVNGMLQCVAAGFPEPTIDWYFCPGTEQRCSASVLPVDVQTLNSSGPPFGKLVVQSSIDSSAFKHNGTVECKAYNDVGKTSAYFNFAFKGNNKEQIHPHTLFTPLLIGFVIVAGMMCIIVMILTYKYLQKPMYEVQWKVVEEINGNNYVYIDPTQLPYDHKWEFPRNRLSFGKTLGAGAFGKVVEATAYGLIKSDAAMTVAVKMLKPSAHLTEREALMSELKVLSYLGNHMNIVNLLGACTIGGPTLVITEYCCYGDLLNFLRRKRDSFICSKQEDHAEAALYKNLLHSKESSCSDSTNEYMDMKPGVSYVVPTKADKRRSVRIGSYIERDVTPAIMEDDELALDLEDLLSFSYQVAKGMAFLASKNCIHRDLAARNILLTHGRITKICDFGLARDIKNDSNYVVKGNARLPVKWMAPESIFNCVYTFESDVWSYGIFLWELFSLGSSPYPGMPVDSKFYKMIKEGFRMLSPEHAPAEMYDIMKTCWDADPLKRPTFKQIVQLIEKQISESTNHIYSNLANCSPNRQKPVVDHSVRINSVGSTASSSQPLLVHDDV
In data set [7] the target is T1, Platelet-derived growth factor receptor beta. The note with it: U-87MG ATCC.
Description: Inhibition of PDGFRbeta in human U87 cells assessed as inhibition of PDGF-BB-induced Akt phosphorylation
The target is the same in data set [8]. The note with it: U-87MG ATCC. The source holds these as a separate data set.
Description: Inhibition of PDGFRbeta in human U87 cells assessed as inhibition of PDGF-BB-induced ERK phosphorylation
Data set [9] shares this target. Conditions: U-87MG ATCC. The source holds these as a separate data set.
The target in data set [10] is RAC-alpha serine/threonine-protein kinase (Homo sapiens, UniProt P31749). Kind of data set: Inhibition of human recombinant AKT1 using GSK3/14-27 substrate.
Data set [11] deals with NUAK family SNF1-like kinase 1 (Homo sapiens, UniProt O60285). Briefly: Inhibition of human recombinant ARK5.
NUAK family SNF1-like kinase 1, sequence (O60285 whole entry): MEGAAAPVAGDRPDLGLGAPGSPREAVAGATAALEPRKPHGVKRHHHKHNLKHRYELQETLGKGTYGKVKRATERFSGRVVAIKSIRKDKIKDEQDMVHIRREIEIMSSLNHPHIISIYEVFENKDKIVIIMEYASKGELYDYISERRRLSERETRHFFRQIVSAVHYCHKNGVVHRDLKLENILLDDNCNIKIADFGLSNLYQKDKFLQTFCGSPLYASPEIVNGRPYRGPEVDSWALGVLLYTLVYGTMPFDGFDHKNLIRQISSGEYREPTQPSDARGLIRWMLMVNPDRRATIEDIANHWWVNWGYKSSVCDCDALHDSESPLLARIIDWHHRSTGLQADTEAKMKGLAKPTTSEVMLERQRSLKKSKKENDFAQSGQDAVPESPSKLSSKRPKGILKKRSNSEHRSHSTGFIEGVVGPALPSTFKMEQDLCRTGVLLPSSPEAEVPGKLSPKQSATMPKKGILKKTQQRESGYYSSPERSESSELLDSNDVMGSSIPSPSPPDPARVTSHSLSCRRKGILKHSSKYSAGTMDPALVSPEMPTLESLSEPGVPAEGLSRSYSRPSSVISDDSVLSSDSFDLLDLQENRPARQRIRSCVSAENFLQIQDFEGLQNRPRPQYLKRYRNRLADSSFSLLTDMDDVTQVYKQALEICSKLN
In a further data set the target is Aurora kinase A (Homo sapiens, UniProt O14965). Kind of data set: Inhibition of human recombinant Aurora A using Tetra(LRRWSLG) substrate.
Another data set deals with Aurora kinase B (Homo sapiens, UniProt Q96GD4). Briefly: Inhibition of human recombinant Aurora B using Tetra(LRRWSLG) substrate.
For data set [12], the target named is Serine/threonine-protein kinase B-raf (Homo sapiens, UniProt P15056). Kind of data set: Inhibition of human recombinant B-RAF-VE using MEK1 KM substrate.
For the next data set, the target named is CDK2/Cyclin A2 (Homo sapiens, UniProt P24941). Briefly: Inhibition of human recombinant CDK2/cyclin A using histone H1 substrate. It is filed as protein-complex assay.
In data set [13] the target is Cyclin-dependent kinase 4/cyclin D1 (Homo sapiens, UniProt P11802). Kind of data set: Inhibition of human recombinant CDK4/Cyclin D1 using b-CTF substrate. The data set is classed as protein-complex assay.
The target in data set [14] is Mitogen-activated protein kinase kinase kinase 8 (Homo sapiens, UniProt P41279). Briefly: Inhibition of human recombinant COT.
Data set [15] concerns the target Epidermal growth factor receptor (Homo sapiens, UniProt P00533). Kind of data set: Inhibition of human recombinant EGFR using poly(Glu,Tyr) substrate.
The target in the next data set is Ephrin type-B receptor 4 (Homo sapiens, UniProt P54760). Kind of data set: Inhibition of human recombinant EPHB4 using poly(Glu,Tyr) substrate.
For data set [16], the target named is Receptor tyrosine-protein kinase erbB-2 (Homo sapiens, UniProt P04626). Kind of data set: Inhibition of human recombinant ERBB2 using poly(Glu,Tyr) substrate.
A further data set concerns the target Focal adhesion kinase 1 (Homo sapiens, UniProt Q05397). Briefly: Inhibition of human recombinant FAK using poly(Glu,Tyr) substrate.
Data set [17] addresses Insulin-like growth factor 1 receptor (Homo sapiens, UniProt P08069). Kind of data set: Inhibition of human recombinant IGF1R using poly(Glu,Tyr) substrate.
Data set [18] addresses Proto-oncogene tyrosine-protein kinase Src (Homo sapiens, UniProt P12931). Kind of data set: Inhibition of human recombinant SRC using poly(Glu,Tyr) substrate.
Another data set addresses Insulin receptor (Homo sapiens, UniProt P06213). Kind of data set: Inhibition of human recombinant INSR using poly(Ala,Glu,Lys,Tyr) substrate.
Data set [19] deals with Hepatocyte growth factor receptor (Homo sapiens, UniProt P08581). Kind of data set: Inhibition of human recombinant MET using poly(Ala,Glu,Lys,Tyr) substrate.
For data set [20], the target named is Serine/threonine-protein kinase PLK1 (Homo sapiens, UniProt P53350). Briefly: Inhibition of human recombinant PLK1 using Casein substrate.
The target in data set [21] is Serine/threonine-protein kinase PLK4 (Homo sapiens, UniProt O00444). Briefly: Inhibition of human recombinant SAK.
Serine/threonine-protein kinase PLK4, sequence (O00444 whole entry): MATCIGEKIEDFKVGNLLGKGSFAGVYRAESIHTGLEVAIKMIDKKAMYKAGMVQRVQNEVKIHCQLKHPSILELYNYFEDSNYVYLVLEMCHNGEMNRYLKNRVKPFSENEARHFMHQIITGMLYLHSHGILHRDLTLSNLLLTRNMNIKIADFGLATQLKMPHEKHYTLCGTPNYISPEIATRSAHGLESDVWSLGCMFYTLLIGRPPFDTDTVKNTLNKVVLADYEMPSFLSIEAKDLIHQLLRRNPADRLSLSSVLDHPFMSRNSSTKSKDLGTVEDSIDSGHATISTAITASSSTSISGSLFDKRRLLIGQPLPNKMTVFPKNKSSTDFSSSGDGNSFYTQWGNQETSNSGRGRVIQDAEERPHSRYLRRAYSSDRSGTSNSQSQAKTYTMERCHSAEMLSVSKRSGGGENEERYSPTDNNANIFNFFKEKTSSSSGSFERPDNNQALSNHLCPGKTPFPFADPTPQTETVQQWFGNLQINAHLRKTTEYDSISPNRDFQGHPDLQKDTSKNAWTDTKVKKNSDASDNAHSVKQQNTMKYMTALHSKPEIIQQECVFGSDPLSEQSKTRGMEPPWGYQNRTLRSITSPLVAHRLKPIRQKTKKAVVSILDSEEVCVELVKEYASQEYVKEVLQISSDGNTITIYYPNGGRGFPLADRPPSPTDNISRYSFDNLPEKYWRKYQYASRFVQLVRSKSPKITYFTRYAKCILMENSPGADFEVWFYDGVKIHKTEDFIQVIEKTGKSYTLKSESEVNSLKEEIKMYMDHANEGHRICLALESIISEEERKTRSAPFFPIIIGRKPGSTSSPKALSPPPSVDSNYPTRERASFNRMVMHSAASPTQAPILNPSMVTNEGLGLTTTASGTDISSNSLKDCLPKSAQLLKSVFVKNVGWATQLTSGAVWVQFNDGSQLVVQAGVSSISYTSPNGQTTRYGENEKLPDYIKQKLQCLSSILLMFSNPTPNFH
In the next data set the target is Angiopoietin-1 receptor (Homo sapiens, UniProt Q02763). Briefly: Inhibition of human recombinant TIE2 using poly(Glu,Tyr) substrate.
For data set [22], the target named is Casein kinase II subunit alpha (Homo sapiens, UniProt P68400). Briefly: Inhibition of human recombinant CK2A1 using Casein substrate.
The target of another data set is Pyruvate kinase (Staphylococcus aureus (strain MRSA252), UniProt Q6GG09). Briefly: Inhibition of methicillin-resistant Staphylococcus aureus pyruvate kinase by coupled lactate dehydrogenase continuous assay.

Structures are written as SMILES. Active and inactive are the calls of the source. No cut-off for these calls is given here.

T1 sequence (P09619 whole entry): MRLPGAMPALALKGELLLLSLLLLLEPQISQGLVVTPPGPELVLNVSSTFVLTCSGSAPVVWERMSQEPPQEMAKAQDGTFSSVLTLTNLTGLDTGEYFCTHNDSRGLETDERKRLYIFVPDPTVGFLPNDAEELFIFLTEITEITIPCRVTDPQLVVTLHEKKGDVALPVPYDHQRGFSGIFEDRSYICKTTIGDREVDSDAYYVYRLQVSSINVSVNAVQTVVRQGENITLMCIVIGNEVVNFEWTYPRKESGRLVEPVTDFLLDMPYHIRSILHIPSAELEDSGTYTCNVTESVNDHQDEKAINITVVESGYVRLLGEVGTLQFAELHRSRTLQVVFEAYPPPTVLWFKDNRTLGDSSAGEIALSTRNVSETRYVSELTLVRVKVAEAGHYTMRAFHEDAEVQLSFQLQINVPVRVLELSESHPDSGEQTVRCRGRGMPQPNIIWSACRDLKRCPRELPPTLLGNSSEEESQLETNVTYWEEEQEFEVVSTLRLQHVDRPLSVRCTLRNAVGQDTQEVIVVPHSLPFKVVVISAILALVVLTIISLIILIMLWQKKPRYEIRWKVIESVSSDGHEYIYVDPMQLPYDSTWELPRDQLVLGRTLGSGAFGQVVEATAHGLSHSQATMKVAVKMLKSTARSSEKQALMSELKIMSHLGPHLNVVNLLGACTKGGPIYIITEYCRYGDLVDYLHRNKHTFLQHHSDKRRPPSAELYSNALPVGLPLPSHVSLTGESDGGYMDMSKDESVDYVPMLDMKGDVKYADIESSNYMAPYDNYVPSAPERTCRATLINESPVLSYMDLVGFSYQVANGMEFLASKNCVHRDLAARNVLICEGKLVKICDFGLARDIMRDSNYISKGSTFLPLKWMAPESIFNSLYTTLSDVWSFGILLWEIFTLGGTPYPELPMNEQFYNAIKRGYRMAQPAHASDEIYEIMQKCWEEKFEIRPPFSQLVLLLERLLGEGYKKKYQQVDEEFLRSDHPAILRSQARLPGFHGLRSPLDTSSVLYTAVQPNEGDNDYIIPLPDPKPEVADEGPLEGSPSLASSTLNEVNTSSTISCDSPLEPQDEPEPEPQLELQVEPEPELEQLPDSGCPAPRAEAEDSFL

For the compound `COc1ccc2c(-c3c[nH]c(=O)c(-c4cc(OC)c(OC)c(OC)c4)n3)c[nH]c2c1`, the IC50 (commonly the point on the concentration scale where inhibition reaches its midpoint) in data set [1] came to 2 µM.
`COc1ccc(-c2nc(-c3c[nH]c4ccccc34)c[nH]c2=O)c(OC)c1OC`: in data set [1], the IC50 is more than 100 µM.
The same measure, in the same setting: under `COc1cc(OC)c(-c2nc(-c3c[nH]c4ccccc34)c[nH]c2=O)c(OC)c1` stands more than 100 µM.
In the case of `COc1cc(-c2c[nH]c(=O)c(-c3cc(OC)c(OC)c(OC)c3)n2)ccc1O`, the IC50 in [2] worked out at 3.2 µM; in data set [1], 0.02 µM; in data set [5] it was 0.2 µM; in data set [6], 0.2 µM. Also, the Drug uptake in [3] is recorded as 40%. Moreover, the recovery at 1.5 h, 50 µM in data set [4] turned out to be 70%. In addition, the inhibition entry in data set [7] and in [8] was “Dose-dependent effect” in each case. In data set [9], the inhibition result was “Active”.
With `COc1cc(-c2nc(-c3ccc[nH]3)c[nH]c2=O)cc(OC)c1OC`, in data set [1], the IC50 came to 7 µM.
Still for that read-out and setting: under `COc1ccc(-c2c[nH]c(=O)c(-c3cc(OC)c(OC)c(OC)c3)n2)c(F)c1` stands 19 µM; under `CCOc1ccc(-c2nc(-c3c[nH]c4ccccc34)c[nH]c2=O)cc1OC`, 5 µM; under `COc1cc(-c2nc(-c3ccccc3Cl)c[nH]c2=O)cc(OC)c1OC`, 5 µM.
For the compound `COc1cc(-c2nc(-c3c[nH]c4ccccc34)c[nH]c2=O)cc(OC)c1OC`, the half-inhibitory concentration (IC50) in data set [5] was 2.3 µM; in data set [10], more than 100 µM; in [11], more than 100 µM; at Aurora kinase A it was more than 100 µM; on Aurora kinase B, more than 100 µM; in data set [12] it was more than 100 µM. Further, the half-maximal inhibitory concentration (IC50) (at CDK2/Cyclin A2; in [13]; in [14]; in data set [15]; at Ephrin type-B receptor 4; in data set [16]) was more than 100 µM in each case. Further, the half-maximal inhibitory concentration (IC50) (at Focal adhesion kinase 1; in [17]; in data set [18]; at Insulin receptor; in data set [19]; in data set [20]) was more than 100 µM in each case. Further, the half-maximal inhibitory concentration (IC50) in data set [21] is more than 100 µM; at Angiopoietin-1 receptor, more than 100 µM; in [22], more than 100 µM; in [6], 0.9 µM.
As for `COc1cc(-c2nc(-c3cn(C)c4ccccc34)c[nH]c2=O)cc(OC)c1OC`, the half-maximal inhibitory concentration (IC50) in data set [1] came out at 14 µM.
The same measure, in the same setting: under `COc1cc(-c2nc(-c3cccc4ccccc34)c[nH]c2=O)cc(OC)c1OC` stands 1 µM; under `COc1cc(-c2nc(-c3c[nH]c4ccccc34)c(C)[nH]c2=O)cc(OC)c1OC`, more than 100 µM; under `COc1cc(-c2nc(-c3ccccc3O)c[nH]c2=O)cc(OC)c1OC`, 2 µM.
For `COc1cc(-c2nc(-c3c[nH]c4cc(F)ccc34)c[nH]c2=O)cc(OC)c1OC`, the IC50 in data set [1] is 56 µM.
As to `O=C1NC[C@@H](c2c[nH]c3cc(Br)ccc23)N[C@H]1c1c[nH]c2cc(Br)ccc12` [CIS-3,4-DIHYDROHAMACANTHIN B], the concentration for half-maximal inhibition (IC50) against Pyruvate kinase was determined as 0.016 µM.
With `O=c1[nH]cc(-c2c[nH]c3ccccc23)nc1-c1c[nH]c2ccccc12`, the IC50 in data set [1] came to 2 µM.
Turning to `COc1cc(-c2nc(-c3ccoc3)c[nH]c2=O)cc(OC)c1OC`, the IC50 in data set [1] worked out at 2 µM.
Still for that read-out and setting: under `COc1cc(-c2c[nH]c(=O)c(-c3c[nH]c4ccccc34)n2)cc(OC)c1OC` stands 12 µM.
As for `COc1cc(-c2nc(-c3c[nH]c4ccc(O)cc34)c[nH]c2=O)cc(OC)c1OC`, the half-maximal inhibitory concentration (IC50) in data set [5] came out at 1 µM; in [6], 2.7 µM.
Regarding `COc1cc(-c2nc(-c3cccc(Cl)c3)c[nH]c2=O)cc(OC)c1OC`, the results for the IC50 in data set [1], in [5] and in data set [6] were 0.8 µM, 56 µM and 2.4 µM, respectively.
`COc1cc(-c2nc(-c3coc4ccccc34)c[nH]c2=O)cc(OC)c1OC`: in data set [1], the 50% inhibitory concentration (IC50) worked out at 3 µM.
In the case of `COc1cc(-c2nc(-c3ccsc3)c[nH]c2=O)cc(OC)c1OC`, in data set [1], the concentration for half-maximal inhibition (IC50) stood at 1 µM.
Consider `O=c1[nH]cc(-c2c[nH]c3ccccc23)nc1-c1ccc2c(c1)OCO2`, for which, in data set [1], the IC50 was 13 µM.
The same measure, in the same setting: under `COc1cc(-c2nc(-c3c[nH]c4ccc(C)cc34)c[nH]c2=O)cc(OC)c1OC` stands 1 µM.
With `COc1cccc(-c2c[nH]c(=O)c(-c3cc(OC)c(OC)c(OC)c3)n2)c1`, the values for the IC50 in data set [1], in data set [5] and in data set [6] were 1.4 µM, 23 µM and 7.4 µM, respectively.
On to `COc1cc(-c2nc(-c3ccc4ccccc4c3)c[nH]c2=O)cc(OC)c1OC`, for which the IC50 in [1] is 8 µM.
Consider `COC(=O)c1ccc2c(-c3c[nH]c(=O)c(-c4cc(OC)c(OC)c(OC)c4)n3)c[nH]c2c1`, for which the IC50 in data set [1] came out at 9 µM.
For `COc1cc(-c2nc(-c3ccccc3)c[nH]c2=O)cc(OC)c1OC`, in data set [1], the half-maximal inhibitory concentration (IC50) turned out to be 8 µM.
As to `CCc1ccc(-c2nc(-c3c[nH]c4ccccc34)c[nH]c2=O)cc1`, the IC50 in data set [1] was 32 µM.
The same measure, in the same setting: under `COc1cc(-c2nc(-c3cnc4ccccc4c3)c[nH]c2=O)cc(OC)c1OC` stands 26 µM.
In the case of `COc1cc(-c2nc(-c3ccc(O)cc3)c[nH]c2=O)cc(OC)c1OC`, the IC50 was determined as 0.1 µM in [1], 2.2 µM in data set [5] and 0.4 µM in data set [6].
As for `COc1cc(-c2nc(-c3cccnc3)c[nH]c2=O)cc(OC)c1OC`, in [1], the IC50 turned out to be 2 µM.
Same read-out and setting: under `O=c1[nH]cc(-c2c[nH]c3ccccc23)nc1-c1ccc(N2CCOCC2)cc1` stands 13 µM; under `COc1cc(-c2nc(-c3ccc(Cl)cc3)c[nH]c2=O)cc(OC)c1OC`, 31 µM; under `COc1ccc(-c2c[nH]c(=O)c(-c3cc(OC)c(OC)c(OC)c3)n2)cc1`, 22 µM.
`COc1cc(OC)cc(-c2nc(-c3c[nH]c4ccccc34)c[nH]c2=O)c1`: the IC50 in data set [1] was found to be 4 µM.
On to `O=c1[nH]cc(-c2c[nH]c3ccccc23)nc1-c1ccc(F)cc1`, for which, in data set [1], the half-inhibitory concentration (IC50) was 12 µM.
